# Laboratory results published in US20240108578A1, “COMPOSITION IN WHICH ABSORBABILITY OF POORLY ABSORBABLE DRUG IS IMPROVED” (MEDRx Co., Ltd., priority 2021, published 2024).
# Test: Dissolution of drug in ionic liquid checked under a microscope
# Type: physicochemical
# Conditions: 1.4 mg in 0.5 mL ionic liquid formulation, heated at 65° C. for 10 minutes
# Procedure: According to the method of Example 1, the preparations of Examples 1, 4 and 5 comprising Lixisenatide as poorly absorbable drug were prepared. Specifically, the ingredients were mixed in the amounts (molar ratios) shown in the above Table 1 to prepare each ionic liquid formulation. Lixisenatide (1.4 mg) was added into the prepared ionic liquid formulation (0.5 mL) and the mixture was heated and dissolved at 65° C. for 10 minutes to prepare each preparation.
# When Lixisenatide was mixed with an ionic liquid and checked the state under a microscope, it was determined that Lixisenatide was dissolved because the crystal of Lixisenatide disappeared by heating.
# According to the method of Example 1, the preparations of Preparation Examples 1 to 3 and 22 to 23 comprising Lixisenatide as poorly absorbable drug were prepared. Specifically, the ingredients were mixed in the amounts (molar ratios) shown in Table 2 below to prepare each ionic liquid formulation, Semaglutide (1.4 mg) was added into the prepared ionic liquid formulation (0.5 mL), and the mixture was heated and dissolved at 65° C. for 10 minutes to prepare each preparation.
# When Semaglutide was mixed with an ionic liquid and checked the state under a microscope, it was determined that Semaglutide was dissolved because the crystal of Semaglutide disappeared by heating.
row,Substance,state of the drug mixed with an ionic liquid under a microscope
1,Lixisenatide,dissolved
2,Semaglutide,dissolved
